Experimental data: paper PMC10785772 (Science translational medicine, 2023)
In brackets after ≈: the same amount, converted by molar mass. Where two headings read alike, the source gives them in different places.

Test system: E. coli strain NDM-1 (ATCC:BAA-2471)
Assay: MIC against multidrug-resistant sepsis-model strain
Type: cell-based

colistin
MIC: 2.5 µg/mL

C[C@@H](O)[C@H]1C(=O)N2C(C(=O)O)=C(SCCN=CN)C[C@H]12 [imipenem]
MIC (Escherichia coli, BAA2471): 32 µg/mL (≈ 107 µM)

O=C(O)c1cn(C2CC2)c2cc(N3CCNCC3)c(F)cc2c1=O [ciprofloxacin]
MIC (Escherichia coli, BAA2471): > 32 µg/mL
